This note sets out measurements from patent US12037333B2, “Pyridopyrazine and pyridotriazine inhibitors of influenza virus replication” (priority 2018, dated 2024).

The first test has as its system Influenza type B (cell culture adapted strain B/Lee/40, ATCC VR-1535). In words: Influenza antiviral assay: inhibition of virus-induced cytopathic effects (CPE) in MDCK cells, XTT dye reduction. The test is classed as cell-based. The settings on record: Influenza B virus, MDCK, 96 h, strain B/Lee/40, MDCK cells, CPE inhibition at 4 days. On the technique in general: Protection from cytopathic effect is a common read-out in antiviral testing.
`CN1CN(C23c4cccc(F)c4CC2Cc2c(F)cccc23)n2ccc(=O)c(O)c2C1=O` (stereo not drawn) [Compound A12, 1-(1,8-Difluoro-9a,10-dihydro-9H-indeno[1,2-a]inden-4b-yl)-5-hydroxy-3-methyl-2,3-dihydro-1H-pyrido[2,1-f][1,2,4]triazine-4,6-dione] gave an EC50 greater than 500 nM.

`O=C1c2c(O)c(=O)ccn2N(C23c4ccccc4CC2Cc2c(Cl)cccc23)CN1CC1CCCC1` (stereo not drawn) [Compound A104] registered an EC50 of 125 to 250 nM.

`CC(CCN1CN(C23c4ccccc4CC2Cc2c3ccc(F)c2F)n2ccc(=O)c(O)c2C1=O)c1ccccc1` (stereo not drawn) [Compound A91]: the EC50 lay within 125 to 250 nM.

On to `CCCN1CN(C23c4cccc(F)c4CC2Cc2c(F)cccc23)n2ccc(=O)c(O)c2C1=O` (stereo not drawn) [Compound A153], for which the EC50 is 125 to 250 nM.

Take `O=C1c2c(O)c(=O)ccn2N(C23c4ccccc4CC2Cc2c(Cl)cccc23)CN1C1CCC1` (stereo not drawn) [Compound A103]: the EC50 is 125 to 250 nM.

As for `O=C1c2c(O)c(=O)ccn2N(C23c4ccccc4CC2Cc2c(Cl)cccc23)CN1CC1CCC1` (stereo not drawn) [Compound A112], the EC50 lay in the range of 250 to 375 nM.

Compound `O=C1c2c(O)c(=O)ccn2N(C23c4ccccc4CC2Cc2cc(F)c(F)cc23)CN1Cc1cccc(F)c1` (stereo not drawn) [Compound A24, 1-(2,3-difluoro-9a,10-dihydroindeno[1,2-a]inden-4b(9H)-yl)-3-(3-fluorobenzyl)-5-hydroxy-2,3-dihydro-1H-pyrido[2,1-f][1,2,4]triazine-4,6-dione] returned an EC50 of 375 to 500 nM.

For the compound `O=C1c2c(O)c(=O)ccn2N(C23c4ccccc4CC2Cc2c(F)cccc23)CN1CCF` (stereo not drawn) [Compound A68], the EC50 is less than 125 nM.

`CN1C(=O)c2c(O)c(=O)ccn2N(C23c4cccc(F)c4CC2Cc2c(F)cccc23)C1CN` (stereo not drawn) [Compound A107, 2-(aminomethyl)-1-(1,8-difluoro-9a,10-dihydroindeno[1,2-a]inden-4b(9H)-yl)-5-hydroxy-3-methyl-2,3-dihydro-1H-pyrido[2,1-f][1,2,4]triazine-4,6-dione]: the concentration giving a half-maximal response (EC50) lay in the range of 125 to 250 nM.

The compound `CCOC12Cc3ccccc3C1(N1CN(CC)C(=O)c3c(O)c(=O)ccn31)c1ccccc1C2` (stereo not drawn) [Compound A48, 1-(9a-Ethoxy-9a,10-dihydroindeno[1,2-a]inden-4b(9H)-yl)-3-ethyl-5-hydroxy-2,3-dihydro-1H-pyrido[2,1-f][1,2,4]triazine-4,6-dione] displayed an EC50 of less than 125 nM.

Compound `CC(C)N1CN(C23c4ccccc4CC2(C)Cc2c3ccc(F)c2F)n2ccc(=O)c(O)c2C1=O` (stereo not drawn) [Compound A167] showed an EC50 of less than 125 nM.

`O=C1c2c(O)c(=O)ccn2N(C23c4ccccc4CC2Cc2ccccc23)CN1Cc1cccc(Cl)c1F` (stereo not drawn) [Compound A31, 3-(3-chloro-2-fluorobenzyl)-1-(9a,10-dihydroindeno[1,2-a]inden-4b(9H)-yl)-5-hydroxy-2,3-dihydro-1H-pyrido[2,1-f][1,2,4]triazine-4,6-dione] showed an EC50 of 375 to 500 nM.

Regarding `CCN1CN(C23c4ccccc4CC2Cc2c(C)cccc23)n2ccc(=O)c(O)c2C1=O` (stereo not drawn) [Compound A82], the EC50 lay in the range of 125 to 250 nM.

In turn, `O=C1c2c(O)c(=O)ccn2N(C23c4ccccc4CC2Cc2c3ccc(F)c2F)CN1CC1CCCCC1` (stereo not drawn) [Compound A99] returned a 50% effective concentration (EC50) of 250 to 375 nM.

`O=C1c2c(O)c(=O)ccn2N(C23c4ccccc4CC2Cc2cc(F)c(F)cc23)CN1CCc1ccccc1` (stereo not drawn) [Compound A22, 1-(2,3-difluoro-9a,10-dihydroindeno[1,2-a]inden-4b(9H)-yl)-5-hydroxy-3-phenethyl-2,3-dihydro-1H-pyrido[2,1-f][1,2,4]triazine-4,6-dione]: the EC50 is less than 125 nM.

As for `CC(C)N1CN(C23c4cccc(F)c4CC2(C)Cc2c(F)cccc23)n2ccc(=O)c(O)c2C1=O` (stereo not drawn) [Compound A89], the EC50 lay in the range of 375 to 500 nM.

`CN1CN(C23c4ccccc4CC2Cc2ccccc23)n2ccc(=O)c(O)c2C1=O` (stereo not drawn) [Compound A1, 1-(9a, 10-dihydroindeno[1,2-a]inden-4b(9H)-yl)-5-hydroxy-3-methyl-2,3-dihydro-1H-pyrido[2,1-f][1,2,4]triazine-4,6-dione] had an EC50 of 250 to 375 nM.

In turn, `CC1N(CC2CC2)C(=O)c2c(O)c(=O)ccn2N1C12c3ccccc3CC1Cc1c2ccc(F)c1F` (stereo not drawn) [Compound A128] yielded an EC50 of 125 to 250 nM.

In turn, `Cc1cccc2c1CC1Cc3c(F)cccc3C21N1CN(C)C(=O)c2c(O)c(=O)ccn21` (stereo not drawn) [Compound A67] returned an EC50 of less than 125 nM.

`O=C1c2c(O)c(=O)ccn2N(C23c4ccccc4CC2Cc2c3ccc(F)c2F)CN1CC(F)F` (stereo not drawn) [Compound A84]: the EC50 was 125 to 250 nM.

In the case of `O=C1c2c(O)c(=O)ccn2N(C23c4cccc(F)c4CC2Cc2c(F)cccc23)CN1CCCF` (stereo not drawn) [Compound A72], the EC50 was less than 125 nM.

The compound `COCCN1CN(C23c4ccccc4CC2Cc2ccccc23)n2ccc(=O)c(O)c2C1=O` (stereo not drawn) [Compound A110] had an EC50 of less than 125 nM.

`CCN1CN(C23c4ccccc4CC2Cc2c3ccc(C)c2F)n2ccc(=O)c(O)c2C1=O` (stereo not drawn) [Compound A98]: the concentration for a half-maximal effect (EC50) is less than 125 nM.

For `Cc1ccc2c(c1F)CC1Cc3ccccc3C21N1CN(C)C(=O)c2c(O)c(=O)ccn21` (stereo not drawn) [Compound A85], the EC50 is 250 to 375 nM.

Turning to `CC1N(C)C(=O)c2c(O)c(=O)ccn2N1C12c3ccccc3CC1Cc1c(F)cccc12` (stereo not drawn) [Compound A60], the EC50 was less than 125 nM.

Compound `Cc1c(F)ccc2c1CC1Cc3ccccc3C21N1CN(C)C(=O)c2c(O)c(=O)ccn21` (stereo not drawn) [Compound A78] gave an EC50 of less than 125 nM.

Regarding `O=C1c2c(O)c(=O)ccn2N(C23c4ccccc4CC2Cc2c3ccc(F)c2F)CN1Cc1ccc(F)cc1` (stereo not drawn) [Compound A17, 1-(1,2-Difluoro-9a,10-dihydro-9H-indeno[1,2-a]inden-4b-yl)-3-(4-fluoro-benzyl)-5-hydroxy-2,3-dihydro-1H-pyrido[2,1-f][1,2,4]triazine-4,6-dione], the EC50 lay within 125 to 250 nM.

In the case of `CC(C)CN1CN(C23c4cccc(F)c4CC2Cc2c(F)cccc23)n2ccc(=O)c(O)c2C1=O` (stereo not drawn) [Compound A156], the EC50 lay within 125 to 250 nM.

Compound `CC1N(CC2CC2)C(=O)c2c(O)c(=O)ccn2N1C12c3ccccc3CC1Cc1c(Cl)cccc12` (stereo not drawn) [Compound A140] showed an EC50 of 250 to 375 nM.

Regarding `O=C1c2c(O)c(=O)ccn2N(C23c4cccc(F)c4CC2Cc2c(F)cccc23)CN1CCF` (stereo not drawn) [Compound A58], the EC50 was less than 125 nM.

The compound `O=C1c2c(O)c(=O)ccn2N(C23c4ccccc4CC2Cc2c(Cl)cccc23)CN1CC(F)F` (stereo not drawn) [Compound A105] gave an EC50 of less than 125 nM.

On to `COCCN1C(=O)c2c(O)c(=O)ccn2N(C23c4ccccc4CC2Cc2c(F)cccc23)C1C` (stereo not drawn) [Compound A124], for which the EC50 fell in the range of 375 to 500 nM.

With `CC(C)CN1C(=O)c2c(O)c(=O)ccn2N(C23c4ccccc4CC2Cc2c3ccc(F)c2F)C1C` (stereo not drawn) [Compound A127], the EC50 lay in the range of 250 to 375 nM.

With `CN1CN(C23c4cccc(F)c4CC2(C)Cc2c(F)cccc23)n2ccc(=O)c(O)c2C1=O` (stereo not drawn) [Compound A54], the EC50 is less than 125 nM.

The compound `CCN1CN(C23c4ccccc4CC2(C)Cc2cc(F)ccc23)n2ccc(=O)c(O)c2C1=O` (stereo not drawn) [Compound A116] came in with an EC50 of less than 125 nM.

In the case of `O=C1c2c(O)c(=O)ccn2N(C23c4ccccc4CC2Cc2cc(F)c(F)cc23)CN1CCc1cccc(F)c1` (stereo not drawn) [Compound A28, 1-(2,3-difluoro-9a,10-dihydroindeno[1,2-a]inden-4b(9H)-yl)-3-(3-fluorophenethyl)-5-hydroxy-2,3-dihydro-1H-pyrido[2,1-f][1,2,4]triazine-4,6-dione], the EC50 was 250 to 375 nM.

In the case of `O=C1c2c(O)c(=O)ccn2N(C23c4cccc(F)c4CC2Cc2c(F)cccc23)CN1CC1CCCCO1` (stereo not drawn) [Compound A130], the EC50 lay in the range of 125 to 250 nM.

The compound `O=C1c2c(O)c(=O)ccn2N(C23c4ccccc4CC2Cc2c(Cl)cccc23)CN1CCCF` (stereo not drawn) [Compound A102] had an EC50 of less than 125 nM.

With `CCN1CN(C23c4cccc(F)c4CC2Cc2c(Cl)cccc23)n2ccc(=O)c(O)c2C1=O` (stereo not drawn) [Compound A151], the EC50 fell in the range of 125 to 250 nM.

On to `CC(C)N1CN(C23c4ccccc4CC2(C)Cc2ccccc23)n2ccc(=O)c(O)c2C1=O` (stereo not drawn) [Compound A50, 5-hydroxy-3-isopropyl-1-(9a-methyl-9a,10-dihydroindeno[1,2-a]inden-4b(9H)-yl)-2,3-dihydro-1H-pyrido[2,1-f] [1,2,4] triazine-4,6-dione], for which the EC50 is less than 125 nM.

Compound `CCC1N(C)C(=O)c2c(O)c(=O)ccn2N1C12c3ccccc3CC1Cc1ccccc12` (stereo not drawn) [Compound A166] came in with an EC50 of less than 125 nM.

`CC1N(C)C(=O)c2c(O)c(=O)ccn2N1C12c3ccccc3CC1Cc1ccccc12` (stereo not drawn) [Compound A158] yielded an EC50 of 125 to 250 nM.

`CN1CN(C23c4ccc(F)cc4CC2Cc2cc(F)ccc23)n2ccc(=O)c(O)c2C1=O` (stereo not drawn) [Compound A3, 1-(2,7-Difluoro-9a,10-dihydro-9H-indeno[1,2-a]inden-4b-yl)-5-hydroxy-3-methyl-2,3-dihydro-1H-pyrido[2,1-f][1,2,4]triazine-4,6-dione] gave an EC50 greater than 500 nM.

On to `COCCN1C(=O)c2c(O)c(=O)ccn2N(C23c4ccccc4CC2Cc2c(Cl)cccc23)C1C` (stereo not drawn) [Compound A125], for which the EC50 was 125 to 250 nM.

On to `COC12Cc3ccccc3C1(N1CN(C)C(=O)c3c(O)c(=O)ccn31)c1ccccc1C2` (stereo not drawn) [Compound A62], for which the EC50 is less than 125 nM.

Consider `O=C1c2c(O)c(=O)ccn2N(C23c4ccccc4CC2Cc2c3ccc(F)c2F)CN1CCCF` (stereo not drawn) [Compound A80], for which the EC50 is less than 125 nM.

`CCN1CN(C23c4ccccc4CC2Cc2c(Cl)cccc23)n2ccc(=O)c(O)c2C1=O` (stereo not drawn) [Compound A55] yielded an EC50 of less than 125 nM.

The compound `COCCN1CN(C23c4ccccc4CC2Cc2c3ccc(F)c2F)n2ccc(=O)c(O)c2C1=O` (stereo not drawn) [Compound A70] gave an EC50 of less than 125 nM.

The compound `O=C1c2c(O)c(=O)ccn2N(C23c4ccccc4CC2Cc2c(F)cccc23)CN1CC1CCOCC1` (stereo not drawn) [Compound A75] came in with an EC50 of less than 125 nM.

`CCN1CN(C23c4cccc(F)c4CC2(C)Cc2c(F)cccc23)n2ccc(=O)c(O)c2C1=O` (stereo not drawn) [Compound A51] yielded an EC50 of less than 125 nM.

Staying with this test, now noted: strain B/Lee/40, MDCK cells, CPE inhibition at 4 days.
In turn, `CC(CCN1CN(C23c4ccccc4CC2Cc2ccccc23)n2ccc(=O)c(O)c2C1=O)c1ccccc1` (stereo not drawn) [Compound A32, 1-(9a,10-dihydroindeno[1,2-a]inden-4b(9H)-yl)-5-hydroxy-3-(3-phenylbutyl)-2,3-dihydro-1H-pyrido[2,1-f][1,2,4]triazine-4,6-dione] displayed an EC50 of less than 125 nM.

What is called EC50 is the concentration at which the effect is half-maximal.
